Laboratory results: the supplement of paper PMC10307832

Assays:
Test in all cases: relative viability (nuclei count vs DMSO), 5 days (fraction); higher = more cells survive
[1] = test system: COR-L23
How it was run: (§1)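 One day after seeding in 1536-well plates, lung cancer cell lines were dosed by pin tool. Dosing was either single-drug or a fixed anchor-drug dose plus five library-drug doses (not always all listed) in √10 steps. After 5 days, nuclei were stained in one fix-and-stain step and counted on 4× images, and relative viability is the nuclei count of treated wells over that of vehicle wells, given as the median of duplicate plates.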

[2] = test system: NCI-H650
How it was run: as §1

[3] = test system: EMC-BAC-2
How it was run: as §1

[4] = test system: NCI-H1793
How it was run: as §1

[5] = test system: HCC-366
How it was run: as §1

[6] = test system: NCI-H2347
How it was run: as §1

[7] = test system: NCI-H2009
How it was run: as §1

[8] = test system: NCI-H1395
How it was run: as §1

[9] = test system: NCI-H1755
How it was run: as §1

[10] = test system: NCI-H1437
How it was run: as §1

[11] = test system: NCI-H23
How it was run: as §1

[12] = test system: SK-MES-1
How it was run: as §1

[13] = test system: NCI-H2342
How it was run: as §1

[14] = test system: NCI-H358
How it was run: as §1

[15] = test system: LC-2-ad
How it was run: as §1

[16] = test system: 201T
How it was run: as §1

[17] = test system: COR-L 105
How it was run: as §1

[18] = test system: NCI-H2023
How it was run: as §1

[19] = test system: NCI-H1915
How it was run: as §1

[20] = test system: HCC-15
How it was run: as §1

[21] = test system: PC-14
How it was run: as §1

Molecule `Cc1csc(=NC2CCCCC2)n1/N=C/c1ccc(O)c(O)c1O` [MIM1] + Cc1cc(Nc2cc(N3CCN(C)CC3)nc(Sc3ccc(NC(=O)C4CC4)cc3)n2)n[nH]1 [Tozasertib] (partner 0.1 µM) has a relative viability ([1]; first compound 0.2 µM) of 0.184, a relative viability ([1]; first compound 0.6325 µM) of 0.218 and a relative viability ([1]; first compound 2 µM) of 0.182. The relative viability ([1]; first compound 6.325 µM) was 0.146, the relative viability ([1]; first compound 20 µM) was 0.152 and the relative viability ([2]; first compound 0.2 µM) was 0.774. It also gave a relative viability ([2]; first compound 0.6325 µM) of 0.711, a relative viability ([2]; first compound 2 µM) of 0.748 and a relative viability ([2]; first compound 6.325 µM) of 0.69. It also gave a relative viability ([2]; first compound 20 µM) of 0.244, a relative viability ([3]; first compound 0.2 µM) of 0.219 and a relative viability ([3]; first compound 0.6325 µM) of 0.3. It also gave a relative viability ([3]; first compound 2 µM) of 0.273, a relative viability ([3]; first compound 6.325 µM) of 0.272 and a relative viability ([3]; first compound 20 µM) of 0.202. It also gave a relative viability ([4]; first compound 0.2 µM) of 0.405, a relative viability ([4]; first compound 2 µM) of 0.435 and a relative viability ([4]; first compound 6.325 µM) of 0.298. For the same molecule, the relative viability ([4]; first compound 20 µM) was 0.34, the relative viability ([5]; first compound 0.2 µM) was 0.147 and the relative viability ([5]; first compound 2 µM) was 0.134. It also gave a relative viability ([5]; first compound 6.325 µM) of 0.026, a relative viability ([5]; first compound 20 µM) of 0.0212 and a relative viability ([6]; first compound 0.2 µM) of 0.478. The relative viability ([6]; first compound 0.6325 µM) was 0.51, the relative viability ([6]; first compound 2 µM) was 0.497 and the relative viability ([6]; first compound 6.325 µM) was 0.473. For the same molecule, the relative viability ([6]; first compound 20 µM) was 0.369, the relative viability ([7]; first compound 0.2 µM) was 0.754 and the relative viability ([7]; first compound 0.6325 µM) was 0.701. For the same molecule, the relative viability ([7]; first compound 2 µM) was 0.859, the relative viability ([7]; first compound 6.325 µM) was 0.622 and the relative viability ([7]; first compound 20 µM) was 0.725. The relative viability ([8]; first compound 0.2 µM) was 0.742, the relative viability ([8]; first compound 0.6325 µM) was 0.791 and the relative viability ([8]; first compound 2 µM) was 0.784. It also gave a relative viability ([8]; first compound 6.325 µM) of 0.68, a relative viability ([8]; first compound 20 µM) of 0.374 and a relative viability ([9]; first compound 0.2 µM) of 0.606. For the same molecule, the relative viability ([9]; first compound 0.6325 µM) was 0.629, the relative viability ([9]; first compound 2 µM) was 0.563 and the relative viability ([9]; first compound 6.325 µM) was 0.477. It also gave a relative viability ([9]; first compound 20 µM) of 0.266, a relative viability ([10]; first compound 0.2 µM) of 0.395 and a relative viability ([10]; first compound 0.6325 µM) of 0.434. The relative viability ([10]; first compound 2 µM) was 0.437, the relative viability ([10]; first compound 6.325 µM) was 0.346 and the relative viability ([10]; first compound 20 µM) was 0.197. It also gave a relative viability ([11]; first compound 0.2 µM) of 0.398, a relative viability ([11]; first compound 2 µM) of 0.325 and a relative viability ([11]; first compound 6.325 µM) of 0.175. For the same molecule, the relative viability ([11]; first compound 20 µM) was 0.15, the relative viability ([12]; first compound 0.2 µM) was 0.909 and the relative viability ([12]; first compound 0.6325 µM) was 0.848. For the same molecule, the relative viability ([12]; first compound 2 µM) was 0.742, the relative viability ([12]; first compound 6.325 µM) was 0.643 and the relative viability ([12]; first compound 20 µM) was 0.492. For the same molecule, the relative viability ([13]; first compound 0.2 µM) was 0.429, the relative viability ([13]; first compound 0.6325 µM) was 0.58 and the relative viability ([13]; first compound 2 µM) was 0.53. It also gave a relative viability ([13]; first compound 6.325 µM) of 0.508, a relative viability ([13]; first compound 20 µM) of 0.575 and a relative viability ([14]; first compound 0.2 µM) of 0.106. It also gave a relative viability ([14]; first compound 0.6325 µM) of 0.0936, a relative viability ([14]; first compound 2 µM) of 0.129 and a relative viability ([14]; first compound 6.325 µM) of 0.0878. For the same molecule, the relative viability ([14]; first compound 20 µM) was 0.0838, the relative viability ([15]; first compound 0.2 µM) was 0.546 and the relative viability ([15]; first compound 0.6325 µM) was 0.471. For the same molecule, the relative viability ([15]; first compound 2 µM) was 0.367, the relative viability ([15]; first compound 6.325 µM) was 0.364 and the relative viability ([15]; first compound 20 µM) was 0.223. The relative viability ([16]; first compound 0.2 µM) was 0.956, the relative viability ([16]; first compound 0.6325 µM) was 1 and the relative viability ([16]; first compound 2 µM) was 0.896. It also gave a relative viability ([16]; first compound 6.325 µM) of 0.504, a relative viability ([16]; first compound 20 µM) of 0.377 and a relative viability ([17]; first compound 0.2 µM) of 0.573. For the same molecule, the relative viability ([17]; first compound 0.6325 µM) was 0.35, the relative viability ([17]; first compound 2 µM) was 0.341 and the relative viability ([17]; first compound 6.325 µM) was 0.354. For the same molecule, the relative viability ([17]; first compound 20 µM) was 0.338, the relative viability ([18]; first compound 0.2 µM) was 0.32 and the relative viability ([18]; first compound 0.6325 µM) was 0.345. For the same molecule, the relative viability ([18]; first compound 2 µM) was 0.3, the relative viability ([18]; first compound 6.325 µM) was 0.237 and the relative viability ([18]; first compound 20 µM) was 0.109. For the same molecule, the relative viability ([19]; first compound 0.2 µM) was 0.499, the relative viability ([19]; first compound 0.6325 µM) was 0.403 and the relative viability ([19]; first compound 2 µM) was 0.337. It also gave a relative viability ([19]; first compound 6.325 µM) of 0.305, a relative viability ([19]; first compound 20 µM) of 0.182 and a relative viability ([20]; first compound 0.2 µM) of 0.354. The relative viability ([20]; first compound 0.6325 µM) was 0.35, the relative viability ([20]; first compound 2 µM) was 0.228 and the relative viability ([20]; first compound 6.325 µM) was 0.231. The relative viability ([20]; first compound 20 µM) was 0.137, the relative viability ([21]; first compound 0.2 µM) was 0.526 and the relative viability ([21]; first compound 0.6325 µM) was 0.593. The relative viability ([21]; first compound 2 µM) was 0.413, the relative viability ([21]; first compound 6.325 µM) was 0.502 and the relative viability ([21]; first compound 20 µM) was 0.357.
